Patent publication US20200079801A1, “TRISUBSTITUTEDSILYLBENZYLBENZIMIDAZOLES AND ANALOGUES” (Bayer Aktiengesellschaft, priority 2017, published 2020)

Columns and labels:
[1] = for logP: HPLC, C 18 reversed phase, 40° C., 0.1% aqueous formic acid and acetonitrile, gradient 10% to 95% acetonitrile
Protocol: temperature: 40° C.; mobile phases: 0.1% aqueous formic acid and acetonitrile; linear gradient from 10% acetonitrile to 95% acetonitrile;
Calibration was carried out using unbranched alkan-2-ones (comprising 3 to 16 carbon atoms) with known logP values (determination of the logP values by the retention times using linear interpolation between two successive alkanones). lambda-max-values were determined using UV-spectra from 200 nm to 400 nm and the peak values of the chromatographic signals.

[2] = system: Colletotrichum lindemuthianum; test: In vitro cell test on Colletotrichum lindemuthianum; type: cell-based; conditions: 144 h, 20 ppm of active ingredient, 6 days incubation, spectrometric measurement of mycelium growth, read-out: efficacy (inhibition of fungal growth)
Protocol: (§1) Example C: In Vitro Cell Test on Colletotrichum lindemuthianum Solvent: dimethyl sulfoxide Culture medium: 14.6 g anhydrous D-glucose (VWR), 7.1 g mycological peptone (Oxoid), 1.4 g granulated yeast extract (Merck), QSP 1 liter Inoculum: spore suspension The tested compounds were solubilized in dimethyl sulfoxide and the solution used to prepare the required range of concentrations. […] A spore suspension of Colletotrichum lindemuthianum was prepared and diluted to the desired spore density. Compounds were evaluated for their ability to inhibit spores germination and mycelium growth in liquid culture assay. The compounds were added in the desired concentration to the culture medium with spores. After 6 days incubation, fungi-toxicity of compounds was determined by spectrometric measurement of mycelium growth. Inhibition of fungal growth was determined by comparing the absorbance values in wells containing the compounds with the absorbance in control wells without fungicides.

Pyricularia oryzae = test: microbe, parasite or virus in culture; type: cell-based; conditions: 120 h, read-out: efficacy (inhibition of fungal growth)
Alternaria alternate = test: In vitro cell test on Alternaria alternate; type: cell-based; conditions: 120 h, 20 ppm of active ingredient, 5 days incubation, spectrometric measurement of mycelium growth, read-out: efficacy (inhibition of fungal growth)
Protocol: as §1, with “Example B:” for “Example C:”, “on Alternaria alternate” for “on Colletotrichum lindemuthianum”, “(Merck), […]” for “(Merck), QSP 1 liter”, “of Alternaria alternate” for “of Colletotrichum lindemuthianum”, “inhibit spore” for “inhibit spores”, “After 5” for “After 6”

| Compound | logP [1] | other results |
| --- | --- | --- |
| C[Si](C)(c1ccccc1)c1ccccc1Cn1cnc2ccccc21 [I.01, 1-{2-[dimethyl(phenyl)silyl]benzyl}-1H-benzimidazole] | – | chromatographic logP [1]: 2.57; inhibition at 20 ppm [2]: 90 to 100%; inhibition at 20 ppm (Pyricularia oryzae): 90 to 100%; inhibition at 20 ppm (Alternaria alternate): 80 to 89% |
| C[Si](C)(c1ccc(-c2ccccc2)cc1)c1ccccc1Cn1cnc2ccccc21 [I.40] | 3.39 | – |
| Cc1nc2ccccc2n1Cc1ccccc1[Si](C)(C)c1ccc(-c2ccccc2)cc1 [I.46] | 3.18 | – |
| Cc1cc2ncn(Cc3ccccc3[Si](C)(C)c3ccc(-c4ccccc4)cc3)c2cc1C [I.48] | 3.33 | – |
| Cc1cc2nc(C)n(Cc3ccccc3[Si](C)(C)c3ccc(-c4ccccc4)cc3)c2cc1C [I.53] | 3.29 | – |
